Measured values published in PMC2759517 (PLoS ONE, 2009).
Where no end group is shown, it is not given here.

Experiments:
[1] = target: T1, HA-tagged PA of FluB (Influenza B virus, UniProt Q9QLI9); assay: biochemical; type: binding
T1 construct: upstream of the initiation codon and antisense primers with a deleted stop codon; made in house; host or cells: human 293T cells, transiently transfected; unpurified cell lysate

[2] = target: HA-tagged PA of FluA (Influenza A virus, UniProt Q2VC91); assay: biochemical; type: binding

T1 sequence (Q9QLI9 whole entry): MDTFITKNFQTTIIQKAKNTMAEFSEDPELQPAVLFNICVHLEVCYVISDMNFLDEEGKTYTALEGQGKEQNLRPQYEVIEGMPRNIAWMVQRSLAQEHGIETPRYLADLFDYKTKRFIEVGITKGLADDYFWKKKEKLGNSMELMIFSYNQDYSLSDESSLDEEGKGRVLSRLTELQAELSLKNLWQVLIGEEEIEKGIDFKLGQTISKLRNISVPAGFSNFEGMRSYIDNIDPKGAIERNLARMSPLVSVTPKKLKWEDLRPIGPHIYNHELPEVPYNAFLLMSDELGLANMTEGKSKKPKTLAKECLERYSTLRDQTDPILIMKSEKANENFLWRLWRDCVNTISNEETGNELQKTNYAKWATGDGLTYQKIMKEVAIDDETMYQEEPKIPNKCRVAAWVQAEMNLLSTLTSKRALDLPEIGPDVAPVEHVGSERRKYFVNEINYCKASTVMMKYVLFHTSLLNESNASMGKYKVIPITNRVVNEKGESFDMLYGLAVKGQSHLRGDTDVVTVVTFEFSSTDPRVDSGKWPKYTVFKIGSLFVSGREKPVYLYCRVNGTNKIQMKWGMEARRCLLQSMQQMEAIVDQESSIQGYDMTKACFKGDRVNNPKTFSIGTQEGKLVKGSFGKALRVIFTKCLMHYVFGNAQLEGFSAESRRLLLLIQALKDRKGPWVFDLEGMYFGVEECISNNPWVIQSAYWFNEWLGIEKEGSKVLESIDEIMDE

CSCC[C@H](N)C(=O)N[C@@H](CC(=O)O)C(=O)N[C@H](C(=O)N[C@@H](CC(N)=O)C(=O)N1CCC[C@H]1C(=O)N[C@H](C(=O)N[C@@H](CC(C)C)C(=O)N[C@@H](CC(C)C)C(=O)N[C@@H](Cc1ccccc1)C(=O)N[C@@H](CC(C)C)C(=O)N[C@@H](CCCCN)C(=O)N[C@H](C(=O)N1CCC[C@H]1C(=O)N[C@@H](C)C(=O)N[C@@H](CCC(N)=O)C(N)=O)C(C)C)[C@@H](C)O)C(C)C [PB11-15 A]
IC50 [1]: > 3000 nM

MDVNPTLLFLK-NH2 [1–11]
IC50 [2]: 900 nM

MNINPYFLFIDVPIQ-NH2 [PB11-15 B]
IC50 [1]: 45 nM
